Measurements: patent US10233173B2, “Substituted 1,2,3-triazoles as NR2B-selective NMDA modulators” (JANSSEN PHARMACEUTICA NV, priority 2016, dated 2019)

What follows are compounds tested against human GluN1/GluN2B NMDA receptors (Homo sapiens, UniProt Q05586+Q13224) (assay: Cell-based calcium flux (FLIPR) assay on cloned human NR1/NR2B ion channels expressed in mammalian cells). Conditions: standard assay; glutamate at ~EC80; FLIPR calcium flux.
Outline: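 Calcium influx followed by FLIPR fluorescence after 5 min compound exposure and a further 5 min co-agonist challenge: 10 μM glycine with glutamate at ~EC80 (standard) or EC40 (HTS).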

Sequence of human GluN1/GluN2B NMDA receptors (Q13224 27-1484, other chains not shown): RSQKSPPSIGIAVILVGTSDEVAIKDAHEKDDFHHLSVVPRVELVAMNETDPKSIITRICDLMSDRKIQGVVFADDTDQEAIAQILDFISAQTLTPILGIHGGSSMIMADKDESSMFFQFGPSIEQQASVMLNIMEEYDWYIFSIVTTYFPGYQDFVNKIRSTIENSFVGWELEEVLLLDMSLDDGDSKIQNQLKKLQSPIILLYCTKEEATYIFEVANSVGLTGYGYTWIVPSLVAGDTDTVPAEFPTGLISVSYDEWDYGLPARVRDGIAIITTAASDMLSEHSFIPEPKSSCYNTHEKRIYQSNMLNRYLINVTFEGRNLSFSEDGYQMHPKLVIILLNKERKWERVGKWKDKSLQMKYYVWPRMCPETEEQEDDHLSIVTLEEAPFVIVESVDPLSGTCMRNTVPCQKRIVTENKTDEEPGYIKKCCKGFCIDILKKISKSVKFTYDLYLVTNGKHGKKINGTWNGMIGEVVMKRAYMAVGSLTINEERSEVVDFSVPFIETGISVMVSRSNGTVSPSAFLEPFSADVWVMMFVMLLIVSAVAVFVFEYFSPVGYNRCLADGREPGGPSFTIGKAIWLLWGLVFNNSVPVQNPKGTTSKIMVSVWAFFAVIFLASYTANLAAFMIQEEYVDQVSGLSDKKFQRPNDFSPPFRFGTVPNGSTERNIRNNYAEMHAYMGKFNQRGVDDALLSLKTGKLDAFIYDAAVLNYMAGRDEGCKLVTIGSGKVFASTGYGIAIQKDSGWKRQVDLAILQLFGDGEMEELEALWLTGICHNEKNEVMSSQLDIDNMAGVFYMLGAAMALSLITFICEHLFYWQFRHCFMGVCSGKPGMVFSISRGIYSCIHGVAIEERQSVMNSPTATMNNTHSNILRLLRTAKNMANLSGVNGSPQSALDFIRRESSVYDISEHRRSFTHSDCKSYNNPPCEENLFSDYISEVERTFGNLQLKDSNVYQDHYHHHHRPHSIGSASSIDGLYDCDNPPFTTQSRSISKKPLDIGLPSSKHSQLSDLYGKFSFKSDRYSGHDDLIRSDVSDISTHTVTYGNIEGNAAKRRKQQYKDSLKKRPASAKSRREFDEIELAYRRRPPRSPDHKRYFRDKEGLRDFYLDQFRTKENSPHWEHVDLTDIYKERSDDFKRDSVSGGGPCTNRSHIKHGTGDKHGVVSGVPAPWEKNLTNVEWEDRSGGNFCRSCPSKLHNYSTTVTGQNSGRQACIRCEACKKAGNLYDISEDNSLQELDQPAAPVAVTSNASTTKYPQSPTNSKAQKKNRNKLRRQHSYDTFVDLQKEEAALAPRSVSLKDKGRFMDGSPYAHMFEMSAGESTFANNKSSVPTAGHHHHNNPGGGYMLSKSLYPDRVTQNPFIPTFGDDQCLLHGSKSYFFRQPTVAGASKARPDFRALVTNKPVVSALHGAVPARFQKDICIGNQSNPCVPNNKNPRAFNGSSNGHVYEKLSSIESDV

Q: `Nc1ccnc(OCc2cn(-c3ccc(F)c(OC(F)F)c3)nn2)n1` [Example 501, 2-[[1-[3-(Difluoromethoxy)-4-fluoro-phenyl]triazol-4-yl]methoxy]pyrimidin-4-amine] was tested. Which IC50 did it give?
A: 0.052 µM

Q: `Nc1cnc(OCc2cn(-c3ccc(F)c(OC(F)F)c3)nn2)nc1` [Example 502, 2-[[1-[3-(Difluoromethoxy)-4-fluoro-phenyl]triazol-4-yl]methoxy]pyrimidin-5-amine] was tested. Which IC50 did it give?
A: 0.136 µM

Q: Which IC50 does the source give for `CNc1ccnc(OCc2cn(-c3ccc(F)c(OC(F)F)c3)nn2)n1` [Example 503, 2-[[1-[3-(Difluoromethoxy)-4-fluoro-phenyl]triazol-4-yl]methoxy]-N-methyl-pyrimidin-4-amine] here?
A: 0.008 µM

Q: Which IC50 does the source give for `CCNc1ccnc(OCc2cn(-c3ccc(F)c(OC(F)F)c3)nn2)n1` [Example 504, 2-((1-(3-(Difluoromethoxy)-4-fluorophenyl)-1H-1,2,3-triazol-4-yl)methoxy)-N-ethylpyrimidin-4-amine] here?
A: 0.007 µM

Q: With `CN(C)c1ccnc(OCc2cn(-c3ccc(F)c(OC(F)F)c3)nn2)n1` [Example 505, 2-[[1-[3-(Difluoromethoxy)-4-fluoro-phenyl]triazol-4-yl]methoxy]-N,N-dimethyl-pyrimidin-4-amine] as the compound, how does the IC50 read?
A: 0.007 µM

Q: With `Fc1ccc(-n2cc(COc3nccc(-c4ccccc4)n3)nn2)cc1OC(F)F` [Example 506, 2-[[1-[3-(Difluoromethoxy)-4-fluoro-phenyl]triazol-4-yl]methoxy]-4-phenyl-pyrimidine] as the compound, how does the IC50 read?
A: 9.75 µM

Q: `Fc1ccc(-n2cc(COc3ncc(N4CC(F)C4)cn3)nn2)cc1OC(F)F` [Example 507, 2-[[1-[3-(Difluoromethoxy)-4-fluoro-phenyl]triazol-4-yl]methoxy]-5-(3-fluoroazetidin-1-yl)pyrimidine] was tested. Which IC50 did it give?
A: 0.008 µM

Q: `Fc1ccc(-n2cc(COc3ncc(N4CC(F)(F)C4)cn3)nn2)cc1OC(F)F` [Example 508, 5-(3,3-Difluoroazetidin-1-yl)-2-[[1-[3-(difluoromethoxy)-4-fluoro-phenyl]triazol-4-yl]methoxy]pyrimidine] was tested. Which IC50 did it give?
A: 0.019 µM

Q: How did the IC50 turn out when `Fc1ccc(-n2cc(COc3nccc(N4CC(F)C4)n3)nn2)cc1OC(F)F` [Example 510, 2-[[1-[3-(Difluoromethoxy)-4-fluoro-phenyl]triazol-4-yl]methoxy]-4-(3-fluoroazetidin-1-yl)pyrimidine] was run?
A: 0.025 µM

Q: How did the IC50 turn out when `Fc1ccc(-n2cc(COc3nccc(N4CC(F)(F)C4)n3)nn2)cc1OC(F)F` [Example 511, 4-(3,3-Difluoroazetidin-1-yl)-2-[[1-[3-(difluoromethoxy)-4-fluoro-phenyl]triazol-4-yl]methoxy]pyrimidine] was run?
A: 0.041 µM

Q: With `Fc1ccc(-n2cc(COc3nccc(N4CC[C@@H](F)C4)n3)nn2)cc1OC(F)F` [Example 512, (R)-2-[[1-[3-(Difluoromethoxy)-4-fluoro-phenyl]triazol-4-yl]methoxy]-4-[(3R)-3-fluoropyrrolidin-1-yl]pyrimidine] as the compound, how does the IC50 read?
A: 0.308 µM

Q: For `Cc1nc(OCc2cn(-c3ccc(F)c(OC(F)F)c3)nn2)ncc1Cl` [Example 513, 5-Chloro-2-[[1-[3-(difluoromethoxy)-4-fluoro-phenyl]triazol-4-yl]methoxy]-4-methyl-pyrimidine], which IC50 is on record?
A: 0.004 µM

Q: How did the IC50 turn out when `Cc1cnc(OCc2cn(-c3ccc(F)c(OC(F)F)c3)nn2)nc1N` [Example 514, 2-[[1-[3-(Difluoromethoxy)-4-fluoro-phenyl]triazol-4-yl]methoxy]-5-methyl-pyrimidin-4-amine] was run?
A: 0.005 µM

Q: Which IC50 does the source give for `CNc1nc(OCc2cn(-c3ccc(F)c(OC(F)F)c3)nn2)ncc1C` [Example 515, 2-[[1-[3-(Difluoromethoxy)-4-fluoro-phenyl]triazol-4-yl]methoxy]-N,5-dimethyl-pyrimidin-4-amine] here?
A: 0.099 µM

Q: With `Cc1cnc(OCc2cn(-c3ccc(F)c(OC(F)F)c3)nn2)nc1N(C)C` [Example 516, 2-[[1-[3-(Difluoromethoxy)-4-fluoro-phenyl]triazol-4-yl]methoxy]-N,N,5-trimethyl-pyrimidin-4-amine] as the compound, how does the IC50 read?
A: 0.017 µM

Q: For `Fc1ccc(-n2cc(COc3ncc(F)c(NCC(F)F)n3)nn2)cc1OC(F)F` [Example 517, N-(2,2-Difluoroethyl)-2-[[1-[3-(difluoromethoxy)-4-fluoro-phenyl]triazol-4-yl]methoxy]-5-fluoro-pyrimidin-4-amine], which IC50 is on record?
A: 0.912 µM

Q: How did the IC50 turn out when `CNc1nc(OCc2cn(-c3ccc(F)c(OC(F)F)c3)nn2)ncc1F` [Example 518, 2-[[1-[3-(Difluoromethoxy)-4-fluoro-phenyl]triazol-4-yl]methoxy]-5-fluoro-N-methyl-pyrimidin-4-amine] was run?
A: 0.092 µM

Q: With `Fc1ccc(-n2cc(COc3ncc(F)c(NC4CC4)n3)nn2)cc1OC(F)F` [Example 519, N-Cyclopropyl-2-((1-(3-(difluoromethoxy)-4-fluorophenyl)-1H-1,2,3-triazol-4-yl)methoxy)-5-fluoropyrimidin-4-amine] as the compound, how does the IC50 read?
A: 0.204 µM

Q: `CNCc1ccnc(OCc2cn(-c3ccc(F)c(OC(F)F)c3)nn2)n1` [Example 520, 1-(2-((1-(3-(Difluoromethoxy)-4-fluorophenyl)-1H-1,2,3-triazol-4-yl)methoxy)pyrimidin-4-yl)-N-methylmethanamine] was tested. Which IC50 did it give?
A: 0.672 µM

Q: With `Cc1ccc(-n2cc(COc3ncc(C)c(N)n3)nn2)cc1OC(F)F` [Example 521, 2-[[1-[3-(Difluoromethoxy)-4-methyl-phenyl]triazol-4-yl]methoxy]-5-methyl-pyrimidin-4-amine] as the compound, how does the IC50 read?
A: 0.021 µM

Q: With `CC(=O)c1cnc(OCc2cn(-c3ccc(C)c(OC(F)F)c3)nn2)nc1` [Example 522, 1-[2-[[1-[3-(Difluoromethoxy)-4-methyl-phenyl]triazol-4-yl]methoxy]pyrimidin-5-yl]ethanone] as the compound, how does the IC50 read?
A: 0.093 µM

Q: With `Cc1ccnc(OCc2cn(-c3ccc(C)c(OC(F)F)c3)nn2)n1` [Example 523, 2-[[1-[3-(Difluoromethoxy)-4-methyl-phenyl]triazol-4-yl]methoxy]-4-methyl-pyrimidine] as the compound, how does the IC50 read?
A: 0.114 µM

Q: How did the IC50 turn out when `Cc1cnc(OCc2cn(-c3ccc(C)c(OC(F)F)c3)nn2)nc1` [Example 524, 2-[[1-[3-(Difluoromethoxy)-4-methyl-phenyl]triazol-4-yl]methoxy]-5-methyl-pyrimidine] was run?
A: 0.028 µM

Q: `Cc1ccc(-n2cc(COc3ncc(Br)cn3)nn2)cc1OC(F)F` [Example 525, 5-Bromo-2-[[1-[3-(difluoromethoxy)-4-methyl-phenyl]triazol-4-yl]methoxy]pyrimidine] was tested. Which IC50 did it give?
A: 0.04 µM

Q: Which IC50 does the source give for `Cc1ccc(-n2cc(COc3ncc(C(C)(C)O)cn3)nn2)cc1OC(F)F` [Example 526, 2-[2-[[1-[3-(Difluoromethoxy)-4-methyl-phenyl]triazol-4-yl]methoxy]pyrimidin-5-yl]propan-2-ol] here?
A: 0.425 µM

Q: How did the IC50 turn out when `COCc1ccnc(OCc2cn(-c3ccc(C)c(OC(F)F)c3)nn2)n1` [Example 527, 2-[[1-[3-(Difluoromethoxy)-4-methyl-phenyl]triazol-4-yl]methoxy]-4-(methoxymethyl)pyrimidine] was run?
A: 0.132 µM

Q: With `Cc1cnc(OCc2nnn(-c3cccc(C(F)F)c3)c2C)nc1C` [Example 528, 2-[[1-[3-(Difluoromethyl)phenyl]-5-methyl-triazol-4-yl]methoxy]-4,5-dimethyl-pyrimidine] as the compound, how does the IC50 read?
A: 0.752 µM

Q: With `Cc1c(COc2ncc(Cl)cn2)nnn1-c1cccc(C(F)F)c1` [Example 529, 5-Chloro-2-[[1-[3-(difluoromethyl)phenyl]-5-methyl-triazol-4-yl]methoxy]pyrimidine] as the compound, how does the IC50 read?
A: 1.32 µM

Q: With `Cc1cnc(OCc2cn(-c3ccc(Cl)c(C(C)(F)F)c3)nn2)nc1` [Example 530, 2-[[1-[4-Chloro-3-(1,1-difluoroethyl)phenyl]triazol-4-yl]methoxy]-5-methyl-pyrimidine] as the compound, how does the IC50 read?
A: 0.005 µM

Q: Which IC50 does the source give for `Cc1ccnc(OCc2cn(-c3ccc(Cl)c(C(C)(F)F)c3)nn2)n1` [Example 531, 2-[[1-[4-Chloro-3-(1,1-difluoroethyl)phenyl]triazol-4-yl]methoxy]-4-methyl-pyrimidine] here?
A: 0.017 µM

Q: How did the IC50 turn out when `CC(C)(O)c1cnc(OCc2cn(-c3ccc(Cl)c(C(C)(F)F)c3)nn2)nc1` [Example 532, 2-[2-[[1-[4-Chloro-3-(1,1-difluoroethyl)phenyl]triazol-4-yl]methoxy]pyrimidin-5-yl]propan-2-ol] was run?
A: 0.081 µM

Q: For `CC(F)(F)c1cc(-n2cc(COc3ncc(CO)cn3)nn2)ccc1Cl` [Example 533, [2-[[1-[4-Chloro-3-(1,1-difluoroethyl)phenyl]triazol-4-yl]methoxy]pyrimidin-5-yl]methanol], which IC50 is on record?
A: 0.017 µM

Q: Which IC50 does the source give for `CC(F)(F)c1cc(-n2cc(COc3ncc(C(F)F)cn3)nn2)ccc1Cl` [Example 535, 2-[[1-[4-Chloro-3-(1,1-difluoroethyl)phenyl]triazol-4-yl]methoxy]-5-(difluoromethyl)pyrimidine] here?
A: 0.009 µM

Q: With `CC(F)(F)c1cc(-n2cc(COc3nccc(C(F)F)n3)nn2)ccc1Cl` [Example 536, 2-[[1-[4-Chloro-3-(1,1-difluoroethyl)phenyl]triazol-4-yl]methoxy]-4-(difluoromethyl)pyrimidine] as the compound, how does the IC50 read?
A: 0.067 µM

Q: With `CC(F)(F)c1cc(-n2cc(COc3ncc(C(F)(F)F)cn3)nn2)ccc1Cl` [Example 537, 2-[[1-[4-Chloro-3-(1,1-difluoroethyl)phenyl]triazol-4-yl]methoxy]-5-(trifluoromethyl)pyrimidine] as the compound, how does the IC50 read?
A: 0.016 µM

Q: With `CC(F)(F)c1cc(-n2cc(COc3nccc(C(F)(F)F)n3)nn2)ccc1Cl` [Example 538, 2-[[1-[4-Chloro-3-(1,1-difluoroethyl)phenyl]triazol-4-yl]methoxy]-4-(trifluoromethyl)pyrimidine] as the compound, how does the IC50 read?
A: 0.318 µM

Q: For `CC(F)(F)c1cc(-n2cc(COc3nccc(CO)n3)nn2)ccc1Cl` [Example 540, [2-[[1-[4-Chloro-3-(1,1-difluoroethyl)phenyl]triazol-4-yl]methoxy]pyrimidin-4-yl]methanol], which IC50 is on record?
A: 0.019 µM

Q: For `COc1ccnc(OCc2cn(-c3ccc(Cl)c(C(C)(F)F)c3)nn2)n1` [Example 541, 2-[[1-[4-Chloro-3-(1,1-difluoroethyl)phenyl]triazol-4-yl]methoxy]-4-methoxy-pyrimidine], which IC50 is on record?
A: 0.012 µM

Q: With `CC(F)(F)c1cc(-n2cc(COc3ncc(OC(F)F)cn3)nn2)ccc1Cl` [Example 542, 2-[[1-[4-Chloro-3-(1,1-difluoroethyl)phenyl]triazol-4-yl]methoxy]-5-(difluoromethoxy)pyrimidine] as the compound, how does the IC50 read?
A: 0.012 µM
